Data: patent US10966978B2, “Dose and regimen for HDM2-p53 interaction inhibitors” (Novartis AG, priority 2016, dated 2021)
Like-named read-outs stand apart in the source and are kept apart here.

System: patients with advanced TP53 wild-type (WT) leukemias
[1] = All subjects N = 37, All Grades

COc1ncc(-c2nc3c(n2C(C)C)[C@H](c2ccc(Cl)cc2)N(c2cc(Cl)cn(C)c2=O)C3=O)c(OC)n1 [HDM201, (S)-5-(5-Chloro-1-methyl-2-oxo-1,2-dihydro-pyridin-3-yl)-6-(4-chloro-phenyl)-2-(2,4-dimethoxy-pyrimidin-5-yl)-1-isopropyl-5,6-dihydro-1H-pyrrolo[3,4-d]imidazol-4-one]
4 (25.0) n (%): AE: Decreased Appetite (Regimen 1A N = 16, All Grades) | AE: Diarrhoea (Regimen 1A N = 16, All Grades)
11 (29.7) n (%): AE: Febrile Neutropenia [1] | AE: Anaemia (All subjects N = 37, Grade 3/4) | AE: Febrile Neutropenia (All subjects N = 37, Grade 3/4) | AE: Neutropenia/Neutrophil Count Decreased (All subjects N = 37, Grade 3/4)
1: Cycle 1 DLTs (1B (d1, d8 Q4W) 150 mg (6 evaluable patients)) | Cycle 1 DLTs (2C (1 week on/3 weeks off) 45 mg (8 evaluable patients)) | Cycle 1 DLTs, Total (2C, N = 8)
0: Cycle 1 DLTs (1A 350 mg (4 evaluable patients)) | Cycle 1 DLTs (1A (d1 Q3W) 250 mg (3 evaluable patients)) | Cycle 1 DLTs (2A 30 mg (3 evaluable patients)) | Cycle 1 DLTs (2A (2 weeks on/2 weeks off) 20 mg (3 evaluable patients)) | Cycle 1 DLTs, Total (2A all doses, N = 6)
0 n (%): AE: Abdominal Discomfort (All subjects N = 37, Grade 3/4) | AE: Abdominal Pain (All subjects N = 37, Grade 3/4) | AE: Abdominal Pain Upper (All subjects N = 37, Grade 3/4) | AE: Amylase Increased (All subjects N = 37, Grade 3/4) | AE: Arthralgia (All subjects N = 37, Grade 3/4) | AE: Asthenia (All subjects N = 37, Grade 3/4) | AE: Atrial Fibrillation (All subjects N = 37, Grade 3/4) | AE: Atypical Pneumonia (All subjects N = 37, Grade 3/4) | AE: Balanitis Candida (All subjects N = 37, Grade 3/4) | AE: Blood Alkaline Phosphatase Increased (All subjects N = 37, Grade 3/4) | AE: Blood Bilirubin Increased (All subjects N = 37, Grade 3/4) | AE: Blood Phosphorus Increased (All subjects N = 37, Grade 3/4) | AE: Cardiac Failure (All subjects N = 37, Grade 3/4) | AE: Conjunctival Haemorrhage (All subjects N = 37, Grade 3/4) | AE: Constipation (All subjects N = 37, Grade 3/4) | AE: Cough (All subjects N = 37, Grade 3/4) | AE: Cystitis Viral (All subjects N = 37, Grade 3/4) | AE: Cytomegalovirus Infection (All subjects N = 37, Grade 3/4) | AE: Decreased Appetite (All subjects N = 37, Grade 3/4) | AE: Diarrhoea (All subjects N = 37, Grade 3/4) | AE: Dyspepsia (All subjects N = 37, Grade 3/4) | AE: Epistaxis (All subjects N = 37, Grade 3/4) | AE: Fatigue (All subjects N = 37, Grade 3/4) | AE: General Physical Health Deterioration (All subjects N = 37, Grade 3/4) | AE: Gingival Bleeding (All subjects N = 37, Grade 3/4) | AE: Graft Versus Host Disease (All subjects N = 37, Grade 3/4) | AE: Haemoglobin Decreased (All subjects N = 37, Grade 3/4) | AE: Headache (All subjects N = 37, Grade 3/4) | AE: Hyperbilirubinaemia (All subjects N = 37, Grade 3/4) | AE: Hyperglycaemia (All subjects N = 37, Grade 3/4) | AE: Hyperphosphataemia (All subjects N = 37, Grade 3/4) | AE: Hypoalbuminaemia (All subjects N = 37, Grade 3/4) | AE: Hypocalcaemia (All subjects N = 37, Grade 3/4) | AE: Hypokalaemia (All subjects N = 37, Grade 3/4) | AE: Hypomagnesaemia (All subjects N = 37, Grade 3/4) | AE: Hyponatraemia (All subjects N = 37, Grade 3/4) | AE: Hypotension (All subjects N = 37, Grade 3/4) | AE: Infective Glossitis (All subjects N = 37, Grade 3/4) | AE: Iron Overload (All subjects N = 37, Grade 3/4) | AE: Lip Oedema (All subjects N = 37, Grade 3/4) | AE: Malaise (All subjects N = 37, Grade 3/4) | AE: Mouth Haemorrhage (All subjects N = 37, Grade 3/4) | AE: Nausea (All subjects N = 37, Grade 3/4) | AE: Oedema (All subjects N = 37, Grade 3/4) | AE: Oedema Peripheral (All subjects N = 37, Grade 3/4) | AE: Oral Disorder (All subjects N = 37, Grade 3/4) | AE: Pain In Extremity (All subjects N = 37, Grade 3/4) | AE: Pneumonia (All subjects N = 37, Grade 3/4) | AE: Pollakiuria (All subjects N = 37, Grade 3/4) | AE: Pyrexia (All subjects N = 37, Grade 3/4) | AE: Rash (All subjects N = 37, Grade 3/4) | AE: Rash Erythematous (All subjects N = 37, Grade 3/4) | AE: Rash Papular (All subjects N = 37, Grade 3/4) | AE: Rectal Haemorrhage (All subjects N = 37, Grade 3/4) | AE: Skin Exfoliation (All subjects N = 37, Grade 3/4) | AE: Vomiting (All subjects N = 37, Grade 3/4) | AE: Weight Decreased (All subjects N = 37, Grade 3/4) | AE: Bone Marrow Failure (Regimen 1A N = 16, All Grades) | AE: Cellulitis (Regimen 1A N = 16, All Grades) | AE: Constipation (Regimen 1A N = 16, All Grades) | AE: Cytomegalovirus Infection (Regimen 1A N = 16, All Grades) | AE: Epistaxis (Regimen 1A N = 16, All Grades)
18 (48.6) n (%): AE: Thrombocytopenia/Platelet Count Decreased [1] | AE: Thrombocytopenia/Platelet Count Decreased (All subjects N = 37, Grade 3/4)
6 (37.5) n (%): AE: Anaemia (Regimen 1A N = 16, All Grades)
3 (8.1) n (%): AE: Acute Kidney Injury [1] | AE: Amylase Increased [1] | AE: Blood Creatinine Increased [1] | AE: Blood Phosphorus Increased [1] | AE: Hyperbilirubinaemia [1] | AE: Hyperphosphataemia [1] | AE: Lipase Increased [1] | AE: White Blood Cell Count Decreased (All subjects N = 37, Grade 3/4)
16 (43.2) n (%): AE: Anaemia [1]
6 (16.2) n (%): AE: Diarrhoea [1] | AE: Fatigue [1]
Acute Kidney Injury G4: Cycle 1 DLT events observed (1B, N = 6)
2 (12.5) n (%): AE: Abdominal Pain (Regimen 1A N = 16, All Grades) | AE: Asthenia (Regimen 1A N = 16, All Grades) | AE: Atrial Fibrillation (Regimen 1A N = 16, All Grades)
1 (2.7) n (%): AE: Abdominal Discomfort [1] | AE: Abdominal Pain Upper [1] | AE: Arthralgia [1] | AE: Atypical Pneumonia [1] | AE: Balanitis Candida [1] | AE: Blood Alkaline Phosphatase Increased [1] | AE: Blood Uric Acid Increased [1] | AE: Bone Marrow Failure [1] | AE: Cardiac Failure [1] | AE: Cellulitis [1] | AE: Chronic Graft Versus Host Disease [1] | AE: Conjunctival Haemorrhage [1] | AE: Cough [1] | AE: Cystitis Viral [1] | AE: Cytomegalovirus Infection [1] | AE: Dyspnoea [1] | AE: Epistaxis [1] | AE: Graft Versus Host Disease [1] | AE: Haemoglobin Decreased [1] | AE: Hyperglycaemia [1] | AE: Hyperkalaemia [1] | AE: Hypoalbuminaemia [1] | AE: Hypokalaemia [1] | AE: Hypomagnesaemia [1] | AE: Hypotension [1] | AE: Infection [1] | AE: Infective Glossitis [1] | AE: Iron Overload [1] | AE: Lip Oedema [1] | AE: Macular Oedema [1] | AE: Oedema [1] | AE: Oedema Peripheral [1] | AE: Oral Disorder [1] | AE: Pain In Extremity [1] | AE: Pneumonia [1] | AE: Pollakiuria [1] | AE: Rash [1] | AE: Rash Erythematous [1] | AE: Rash Papular [1] | AE: Rectal Haemorrhage [1] | AE: Renal Failure [1] | AE: Skin Exfoliation [1] | AE: Subarachnoid Haemorrhage [1] | AE: Weight Decreased [1] | AE: Acute Kidney Injury (All subjects N = 37, Grade 3/4) | AE: Blood Creatinine Increased (All subjects N = 37, Grade 3/4) | AE: Blood Uric Acid Increased (All subjects N = 37, Grade 3/4) | AE: Bone Marrow Failure (All subjects N = 37, Grade 3/4) | AE: C-Reactive Protein Increased (All subjects N = 37, Grade 3/4) | AE: Cellulitis (All subjects N = 37, Grade 3/4) | AE: Chronic Graft Versus Host Disease (All subjects N = 37, Grade 3/4) | AE: Dyspnoea (All subjects N = 37, Grade 3/4) | AE: Gamma-Glutamyltransferase Increased (All subjects N = 37, Grade 3/4) | AE: Hyperkalaemia (All subjects N = 37, Grade 3/4) | AE: Hyperuricaemia (All subjects N = 37, Grade 3/4) | AE: Infection (All subjects N = 37, Grade 3/4) | AE: Macular Oedema (All subjects N = 37, Grade 3/4) | AE: Renal Failure (All subjects N = 37, Grade 3/4) | AE: Stomatitis (All subjects N = 37, Grade 3/4) | AE: Subarachnoid Haemorrhage (All subjects N = 37, Grade 3/4)
9 (24.3) n (%): AE: Tumour Lysis Syndrome [1] | AE: Tumour Lysis Syndrome (All subjects N = 37, Grade 3/4)
33 (89.2) n (%): AE: Total [1]
25 (67.6) n (%): AE: Total (All subjects N = 37, Grade 3/4)
1 (6.3) n (%): AE: Abdominal Discomfort (Regimen 1A N = 16, All Grades) | AE: Abdominal Pain Upper (Regimen 1A N = 16, All Grades) | AE: Acute Kidney Injury (Regimen 1A N = 16, All Grades) | AE: Arthralgia (Regimen 1A N = 16, All Grades) | AE: Atypical Pneumonia (Regimen 1A N = 16, All Grades) | AE: Balanitis Candida (Regimen 1A N = 16, All Grades) | AE: Blood Alkaline Phosphatase Increased (Regimen 1A N = 16, All Grades) | AE: Blood Bilirubin Increased (Regimen 1A N = 16, All Grades) | AE: Blood Creatinine Increased (Regimen 1A N = 16, All Grades) | AE: Blood Phosphorus Increased (Regimen 1A N = 16, All Grades) | AE: Blood Uric Acid Increased (Regimen 1A N = 16, All Grades) | AE: C-Reactive Protein Increased (Regimen 1A N = 16, All Grades) | AE: Cardiac Failure (Regimen 1A N = 16, All Grades) | AE: Chronic Graft Versus Host Disease (Regimen 1A N = 16, All Grades) | AE: Conjunctival Haemorrhage (Regimen 1A N = 16, All Grades) | AE: Cough (Regimen 1A N = 16, All Grades) | AE: Cystitis Viral (Regimen 1A N = 16, All Grades) | AE: Dyspepsia (Regimen 1A N = 16, All Grades) | AE: Dyspnoea (Regimen 1A N = 16, All Grades)
20 (54.1) n (%): AE: Nausea [1]
4:: Cycle 1 DLTs, Total (1A all doses, N = 16)
5 (13.5) n (%): AE: Asthenia [1]
4: Cycle 1 DLTs (1A 400 mg (9 evaluable patients))
10 (27.0) n (%): AE: Decreased Appetite [1]
7 (18.9) n (%): AE: Vomiting [1]
Tumor Lysis Syndrome G4: Cycle 1 DLT events observed (2C, N = 8)
4 (10.8) n (%): AE: Pyrexia [1] | AE: White Blood Cell Count Decreased [1]
12 (32.4) n (%): AE: Neutropenia/Neutrophil Count Decreased [1]
2 (5.4) n (%): AE: Abdominal Pain [1] | AE: Atrial Fibrillation [1] | AE: Blood Bilirubin Increased [1] | AE: C-Reactive Protein Increased [1] | AE: Constipation [1] | AE: Dyspepsia [1] | AE: Gamma-Glutamyltransferase Increased [1] | AE: General Physical Health Deterioration [1] | AE: Gingival Bleeding [1] | AE: Headache [1] | AE: Hyperuricaemia [1] | AE: Hypocalcaemia [1] | AE: Hyponatraemia [1] | AE: Hypophosphataemia [1] | AE: Leukopenia [1] | AE: Malaise [1] | AE: Mouth Haemorrhage [1] | AE: Pancytopenia [1] | AE: Stomatitis [1] | AE: Hypophosphataemia (All subjects N = 37, Grade 3/4) | AE: Leukopenia (All subjects N = 37, Grade 3/4) | AE: Lipase Increased (All subjects N = 37, Grade 3/4) | AE: Pancytopenia (All subjects N = 37, Grade 3/4)
3 (18.8) n (%): AE: Amylase Increased (Regimen 1A N = 16, All Grades)
